Data taken from PubChem BioAssay (NCI).
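Exposure lasted 48 hours, with cells grown in 96-well plates and compounds tested at five concentrations. Definition used: TGI = concentration required for complete inhibition of growth.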

Columns and labels:
Experiment in all cases: NCI-60 cell line screen, 48 h
NCI/ADR-RES ovarian = test system: NCI/ADR-RES ovarian
TK-10 renal = test system: TK-10 renal
ACHN renal = test system: ACHN renal
SF-295 CNS = test system: SF-295 CNS
HCC-2998 colon = test system: HCC-2998 colon
NCI-H226 lung = test system: NCI-H226 lung
KM12 colon = test system: KM12 colon
U251 CNS = test system: U251 CNS
MALME-3M melanoma = test system: MALME-3M melanoma
MCF7 breast = test system: MCF7 breast
786-0 renal = test system: 786-0 renal
COLO 205 colon = test system: COLO 205 colon
HCT-15 colon = test system: HCT-15 colon
SK-MEL-2 melanoma = test system: SK-MEL-2 melanoma
HOP-62 NSCLC = test system: HOP-62 NSCLC
A549 NSCLC = test system: A549 NSCLC
SNB-75 CNS = test system: SNB-75 CNS
T-47D breast = test system: T-47D breast
UACC-62 melanoma = test system: UACC-62 melanoma
OVCAR-4 ovarian = test system: OVCAR-4 ovarian

Structure (SMILES) | TGI (NCI/ADR-RES ovarian) | TGI (TK-10 renal) | TGI (ACHN renal) | TGI (SF-295 CNS) | TGI (HCC-2998 colon) | TGI (NCI-H226 lung) | TGI (KM12 colon) | TGI (U251 CNS) | TGI (MALME-3M melanoma) | TGI (MCF7 breast) | TGI (786-0 renal) | TGI (COLO 205 colon) | TGI (HCT-15 colon) | TGI (SK-MEL-2 melanoma) | TGI (HOP-62 NSCLC) | TGI (A549 NSCLC) | TGI (SNB-75 CNS) | TGI (T-47D breast) | TGI (UACC-62 melanoma) | TGI (OVCAR-4 ovarian)
C=CC(=O)NCCC(=O)OCn1cc(F)c(=O)[nH]c1=O | > 100 µM | > 100 µM | > 100 µM | > 100 µM | > 100 µM | > 100 µM | > 100 µM | > 100 µM | > 100 µM | > 100 µM | > 100 µM | > 100 µM | > 100 µM | > 100 µM | > 100 µM | > 100 µM | > 100 µM | > 100 µM | > 100 µM | 40.3 µM
COc1ccc(/C=C/C(=O)c2cc(OC)cc(OC)c2)cc1 | 9.02 µM | 23.9 µM | 17.7 µM | 7.23 µM | 16.3 µM | 31.6 µM | 2.23 µM | 7.41 µM | 27.8 µM | 0.952 µM | 11.2 µM | 16.8 µM | 7.9 µM | 42.3 µM | 14.6 µM | 6.96 µM | 8.19 µM | 11.9 µM | 16.9 µM | 18 µM
COC(=O)NC(=O)NC(Cc1ccccc1)NC(=O)OCc1ccccc1 (stereo not given) | > 100 µM | > 100 µM | > 100 µM | > 100 µM | > 100 µM | > 100 µM | > 100 µM | > 100 µM | > 100 µM | > 100 µM | > 100 µM | > 100 µM | > 100 µM | > 100 µM | > 100 µM | > 100 µM | 50.5 µM | > 100 µM | > 100 µM | > 100 µM
CC(NCc1c(O)ccc2c(-c3ccccc3)cc(=O)oc12)C(=O)O (stereo not given) | > 100 µM | > 100 µM | > 100 µM | > 100 µM | > 100 µM | > 100 µM | > 100 µM | > 100 µM | > 100 µM | > 100 µM | > 100 µM | > 100 µM | > 100 µM | > 100 µM | > 100 µM | > 100 µM | > 100 µM | > 100 µM | > 100 µM | > 100 µM
Clc1ccc(Cc2nc3ccccc3o2)cc1 | > 100 µM | > 100 µM | > 100 µM | > 100 µM | > 100 µM | > 100 µM | > 100 µM | > 100 µM | > 100 µM | > 100 µM | > 100 µM | > 100 µM | > 100 µM | > 100 µM | > 100 µM | > 100 µM | 91.2 µM | > 100 µM | > 100 µM | > 100 µM
